Measurements as given in patent publication US20070037887A1, “Blockade of mtor to prevent a hormonal adaptive response” (University of Virginia Patent Foundation, priority 2003, published 2007).

Assays:
[1] = test system: MCF-7 cells; test: Apoptosis ELISA (Cell Death Detection Kit), MCF-7 cells; format: cell-based, human; details: three day treatment
Description: (§1) FIG. 6 is a bar graph portraying data representing the induction of apoptosis in MCF-7 and LTED cells by FTS. Eighty thousand MCF-7 and LTED cells were plated into each well of 12-well plates in their culture media. Two days later, the cells were treated with FTS for 3 days. Apoptosis was measured using a Cell Death Detection Kit from Roche Molecular Biochemicals. Parallel plates subjected to identical treatment were prepared for cell counting. The results were expressed as the values of optical density at 405 nm per 10,000 cells.
(§2) Applicants postulated that these cells might also have become sensitized to the pro-apoptotic effects of estradiol. To test this hypothesis, an ELISA assay was used to assess apoptosis and to compare the effects of estradiol in wild-type and LTED cells. […] The presence of apoptosis in LTED cells was confirmed by the measurement of annexin V and the use of time-lapse microscopy.
(§3) The effect of a three day treatment with FTS on apoptosis in MCF-7 and LTED cells was examined using the ELISA assay for quantitation. […] LTED cells were much more sensitive than MCF-7 cells to the apoptotic effects of FTS.

[2] = test system: LTED cells; test: Apoptosis ELISA (Cell Death Detection Kit), LTED cells; format: cell-based, human; details: three day treatment
Description: as §1, §2, §3

[3] = test system: PHAS-I; test: PHAS-I phosphorylation in 293T cells (SDS-PAGE mobility, PThr36/45 immunoblot); format: cell-based; details: increasing concentrations, 1 h
Description: FIG. 11A & 11B represent data showing FTS inhibits PHAS-I phosphorylation and promotes dissociation of the mTOR-raptor complex in 293T cells. 293T cells were transfected with pcDNA3AU1-mTOR, pcDNA33HARaptor, pcDNA33HA-mLST8, and pCMV-Tag3APHAS-I (FIG. 11A). After 18 h the cells were incubated for 1 h with increasing concentrations of FTS before extracts were prepared. A sample of each extract was subjected to SDS-PAGE and immunoblotted to detect PHAS-I or PThr^36/45. AU1-mTOR was also immunoprecipitated from each extract, and immune complexes were subjected to SDSPAGE and immunoblotted with mTAb2, to detect mTOR, and with anti-HA antibodies, to detect HA-mLST8 and HA-raptor. Nontransfected 293T cells were incubated with increasing concentrations of FTS for 1 h before extracts were prepared. mTOR was immunoprecipitated with mTAb1, and samples were subjected to SDS-PAGE.
To investigate the effects of FTS on mTOR function in 293T cells, changes in the phosphorylation of PHAS-I, a well characterized target of mTOR were monitored. Phosphorylation of Ser64 and Thr69 in PHAS-I causes a dramatic decrease in the mobility of the protein in SDS-PAGE, so that changes in the mobility provide an index of changes in phosphorylation state. […]

[4] = test system: mTOR-mLST8; test: Coimmunoprecipitation of mLST8 with mTOR, compound added to cell extracts; format: binding; details: only at the highest concentrations investigated
Description: FIGS. 13A & 13B represent data showing FTS promotes raptor dissociation and inhibits mTOR activity in cell extracts. 293T cells were transfected with pcDNA3 alone (Vec.) or with a combination of pcDNA3AU1-mTOR, pcDNA33HA-Raptor, and pcDNA33HA-mLST8. Extracts of the cells were incubated with increasing concentrations of FTS before AU1-mTOR was immunoprecipated. Samples of the immune complexes were incubated with [γ-^32P]ATP and recombinant [His^6]PHAS-I, then subjected to SDS-PAGE and transferred to an immobilon membrane. After obtaining a phosphorimage of the membrane to detect ^32P-PHAS-I, the membrane was immunoblotted with PThr^36/45 antibodies. […]
FIGS. 14A & 14B represent data showing the relative effects of increasing concentrations of FTS and GTS on mTOR activity and the association of mTOR and raptor. Samples of extracts from 293T cells overexpressing AU1-mTOR, HA-raptor, and HA-mLST8 were incubated for 1 h with increasing concentrations of FTS (●, ▴, ▪) or GTS (∘, Δ, □) before immunoprecipitations were conducted with anti-AU1 antibodies. mTOR kinase activity (●, ∘) was determined by measuring ^32P incorporation into [His^6]PHAS-I in immune complex kinases assays performed with [γ-^32P]ATP (see FIG. 14A). The relative amounts of HA-raptor (▴, Δ) and HA-mLST8 (▪, □) that coimmunoprecipitated with AU1-mTOR were determined after immunoblotting with anti-HA antibodies (see FIG. 14B). […]

For `CC(C)=CCC/C(C)=C/CC/C(C)=C/CSc1ccccc1C(=O)O` [FTS, farnesylthiosalicylic acid], which induction of apoptosis ([1]; FTS 75 μM) is on record?
Its induction of apoptosis is “dramatic increase in apoptosis”.

And the induction of apoptosis ([1]; FTS 20 and 50 μM)?
The induction of apoptosis was “did not induce apoptosis”.

What about the induction of apoptosis ([2]; FTS 75 μM) of the same molecule?
The induction of apoptosis was “dramatic increase in apoptosis”.

What about the induction of apoptosis ([2]; FTS 20 and 50 μM) of the same molecule?
Its induction of apoptosis is “did not induce apoptosis”.

What about the “phosphorylation of PHAS-I (electrophoretic mobility)” value [3] of the same molecule?
Its value is “decreased the phosphorylation”.

And the “reactivity of PHAS-I with PThr36/45 phosphospecific antibodies” value [3]?
Its value is “markedly decreased”.

What about the “amounts of transfected and endogenous mLST8 that coimmunoprecipitated with mTOR” value [4] of the same molecule?
The value was “modestly decreased”.
